# Test results: patent US7563825B1, “Modulation of beta-catenin coactivator interactions to effect stem cell growth or differentiation” (Choongwae Pharma Corporation, priority 2005, dated 2009)
# “Also recorded” adds a separate entry of the source.
# Experiments:
# C2C12 myoblasts = experiment: Differentiation of C2C12 myoblasts; format: cell-based; conditions: 10 μM ICG-001, compared to differentiation medium or growth medium (FIGS. 3, 4)
# Procedure: FIG. 4 illustrates that differentiation of C2C12 myeloblasts is induced by 10 μM ICG-001 as compared to differentiation medium.
# (§1) From our chemogenomic studies with the small molecule inhibitor of the β-catenin/CBP interaction and additional gene expression profiling, we have developed a model that describes how differential coactivator usage in Wnt signaling controls proliferation vs. differentiation. The critical feature of this model is that the CBP arm (FIG. 2, left side) of the pathway is essential for proliferation without differentiation, for example in cancer or stem cells, whereas the p300 arm (FIG. 2, right side) is critical for differentiation, with limited proliferation.
# cancer cells = conditions: cited from earlier work
# 3T3-L1 preadipocytes = experiment: Differentiation of 3T3-L1 preadipocytes; format: cell-based
# Text: as §1
# β-catenin/CBP = β-catenin/CBP (Homo sapiens, UniProt Q92793); conditions: CBP arm of the Wnt pathway; cited from earlier work
# Sequence of β-catenin/CBP (Q92793 whole entry): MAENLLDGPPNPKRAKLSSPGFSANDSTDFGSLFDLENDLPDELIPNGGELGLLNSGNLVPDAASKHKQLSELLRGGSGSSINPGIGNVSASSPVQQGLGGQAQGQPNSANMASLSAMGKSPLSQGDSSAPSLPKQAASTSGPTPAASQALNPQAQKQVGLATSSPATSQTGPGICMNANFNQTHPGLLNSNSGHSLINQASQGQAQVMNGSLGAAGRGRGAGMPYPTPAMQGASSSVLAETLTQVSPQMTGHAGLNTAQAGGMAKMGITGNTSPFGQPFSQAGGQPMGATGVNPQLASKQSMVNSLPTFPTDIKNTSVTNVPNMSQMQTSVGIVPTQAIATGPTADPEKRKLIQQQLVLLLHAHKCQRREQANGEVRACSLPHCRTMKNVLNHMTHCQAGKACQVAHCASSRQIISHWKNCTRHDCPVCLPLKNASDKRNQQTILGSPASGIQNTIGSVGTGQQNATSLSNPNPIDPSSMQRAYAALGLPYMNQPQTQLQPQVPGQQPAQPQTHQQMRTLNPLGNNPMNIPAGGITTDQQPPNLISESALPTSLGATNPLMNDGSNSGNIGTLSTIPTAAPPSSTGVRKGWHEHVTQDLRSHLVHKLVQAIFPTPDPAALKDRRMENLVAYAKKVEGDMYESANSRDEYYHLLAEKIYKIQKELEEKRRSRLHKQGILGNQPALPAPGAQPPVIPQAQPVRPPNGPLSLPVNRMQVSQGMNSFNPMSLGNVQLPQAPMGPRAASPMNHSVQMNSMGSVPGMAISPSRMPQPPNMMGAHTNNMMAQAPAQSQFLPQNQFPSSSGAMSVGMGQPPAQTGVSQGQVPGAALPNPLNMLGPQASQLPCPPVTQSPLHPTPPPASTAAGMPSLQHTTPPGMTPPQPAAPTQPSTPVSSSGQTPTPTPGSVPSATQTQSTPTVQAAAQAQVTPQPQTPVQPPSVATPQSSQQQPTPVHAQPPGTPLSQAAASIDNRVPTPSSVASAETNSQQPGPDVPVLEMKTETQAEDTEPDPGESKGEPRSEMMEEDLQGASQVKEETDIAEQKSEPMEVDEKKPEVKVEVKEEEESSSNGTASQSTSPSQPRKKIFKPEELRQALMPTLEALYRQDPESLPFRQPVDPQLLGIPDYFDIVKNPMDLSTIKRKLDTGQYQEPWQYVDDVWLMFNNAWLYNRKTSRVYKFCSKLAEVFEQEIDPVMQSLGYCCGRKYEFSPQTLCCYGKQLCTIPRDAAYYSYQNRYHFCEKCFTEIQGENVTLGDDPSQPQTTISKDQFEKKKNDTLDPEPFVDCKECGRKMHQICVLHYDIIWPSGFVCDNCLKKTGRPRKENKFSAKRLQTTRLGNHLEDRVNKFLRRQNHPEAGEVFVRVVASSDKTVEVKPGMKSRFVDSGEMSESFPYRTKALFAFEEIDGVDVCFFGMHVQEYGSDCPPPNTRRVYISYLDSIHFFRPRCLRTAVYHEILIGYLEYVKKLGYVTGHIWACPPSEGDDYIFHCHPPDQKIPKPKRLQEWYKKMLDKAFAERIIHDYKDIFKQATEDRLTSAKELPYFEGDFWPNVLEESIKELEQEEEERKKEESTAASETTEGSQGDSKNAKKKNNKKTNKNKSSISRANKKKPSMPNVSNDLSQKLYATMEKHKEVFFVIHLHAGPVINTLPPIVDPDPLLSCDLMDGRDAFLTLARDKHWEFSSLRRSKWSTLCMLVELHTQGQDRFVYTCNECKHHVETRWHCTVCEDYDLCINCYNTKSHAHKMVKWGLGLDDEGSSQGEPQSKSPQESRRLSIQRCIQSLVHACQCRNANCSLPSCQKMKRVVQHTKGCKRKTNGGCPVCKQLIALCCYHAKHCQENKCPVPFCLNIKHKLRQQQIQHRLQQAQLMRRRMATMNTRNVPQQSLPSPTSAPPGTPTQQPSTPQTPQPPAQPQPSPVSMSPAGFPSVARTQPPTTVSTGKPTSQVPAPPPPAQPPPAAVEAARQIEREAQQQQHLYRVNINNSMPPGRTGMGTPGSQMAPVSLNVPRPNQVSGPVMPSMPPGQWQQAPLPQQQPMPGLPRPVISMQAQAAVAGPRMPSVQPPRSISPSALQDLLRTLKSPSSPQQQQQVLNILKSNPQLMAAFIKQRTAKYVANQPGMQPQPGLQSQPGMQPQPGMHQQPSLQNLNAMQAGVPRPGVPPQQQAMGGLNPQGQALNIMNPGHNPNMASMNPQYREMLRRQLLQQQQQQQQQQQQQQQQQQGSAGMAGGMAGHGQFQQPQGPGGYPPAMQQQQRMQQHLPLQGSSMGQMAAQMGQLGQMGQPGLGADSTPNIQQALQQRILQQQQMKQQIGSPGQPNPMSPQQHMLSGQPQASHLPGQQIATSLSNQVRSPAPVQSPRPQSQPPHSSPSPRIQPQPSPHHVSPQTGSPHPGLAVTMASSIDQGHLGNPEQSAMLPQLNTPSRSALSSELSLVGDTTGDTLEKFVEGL
structure (smiles),measurement,setting,value
O=C1[C@H](Cc2ccc(O)cc2)N2C(=O)CCN(C(=O)NCc3ccccc3)[C@H]2CN1Cc1cccc2ccccc12 [ICG-001],differentiation of C2C12 myeloblasts (myoblasts),C2C12 myoblasts,induces the differentiation; also recorded: induced; also recorded: inducing the differentiation
same,programmed cell death in cancer cells,cancer cells,selectively inducing programmed cell death
same,"differentiation of non-tumorigenic precursor cells, 3T3-L1 preadipocytes",3T3-L1 preadipocytes,inducing the differentiation
same,inhibition of β-catenin/CBP dependent transcription,β-catenin/CBP,specifically inhibits
